{
  "source": "patent US10662194B2",
  "about": "“Substituted 6-anilino-9-heterocyclylpurine derivatives for inhibition of plant stress” (UNIVERZITA PALACKEHO V OLOMOUCI, priority 2014, dated 2020)",
  "key": {"CRE1/AHK4": {"target": "T1, CRE1/AHK4 (Arabidopsis thaliana, UniProt Q9C5U0)", "T1 construct": "expressed in transfected cells; host or cells: Escherichia coli strain KMI001", "T1 sequence (Q9C5U0 whole entry)": "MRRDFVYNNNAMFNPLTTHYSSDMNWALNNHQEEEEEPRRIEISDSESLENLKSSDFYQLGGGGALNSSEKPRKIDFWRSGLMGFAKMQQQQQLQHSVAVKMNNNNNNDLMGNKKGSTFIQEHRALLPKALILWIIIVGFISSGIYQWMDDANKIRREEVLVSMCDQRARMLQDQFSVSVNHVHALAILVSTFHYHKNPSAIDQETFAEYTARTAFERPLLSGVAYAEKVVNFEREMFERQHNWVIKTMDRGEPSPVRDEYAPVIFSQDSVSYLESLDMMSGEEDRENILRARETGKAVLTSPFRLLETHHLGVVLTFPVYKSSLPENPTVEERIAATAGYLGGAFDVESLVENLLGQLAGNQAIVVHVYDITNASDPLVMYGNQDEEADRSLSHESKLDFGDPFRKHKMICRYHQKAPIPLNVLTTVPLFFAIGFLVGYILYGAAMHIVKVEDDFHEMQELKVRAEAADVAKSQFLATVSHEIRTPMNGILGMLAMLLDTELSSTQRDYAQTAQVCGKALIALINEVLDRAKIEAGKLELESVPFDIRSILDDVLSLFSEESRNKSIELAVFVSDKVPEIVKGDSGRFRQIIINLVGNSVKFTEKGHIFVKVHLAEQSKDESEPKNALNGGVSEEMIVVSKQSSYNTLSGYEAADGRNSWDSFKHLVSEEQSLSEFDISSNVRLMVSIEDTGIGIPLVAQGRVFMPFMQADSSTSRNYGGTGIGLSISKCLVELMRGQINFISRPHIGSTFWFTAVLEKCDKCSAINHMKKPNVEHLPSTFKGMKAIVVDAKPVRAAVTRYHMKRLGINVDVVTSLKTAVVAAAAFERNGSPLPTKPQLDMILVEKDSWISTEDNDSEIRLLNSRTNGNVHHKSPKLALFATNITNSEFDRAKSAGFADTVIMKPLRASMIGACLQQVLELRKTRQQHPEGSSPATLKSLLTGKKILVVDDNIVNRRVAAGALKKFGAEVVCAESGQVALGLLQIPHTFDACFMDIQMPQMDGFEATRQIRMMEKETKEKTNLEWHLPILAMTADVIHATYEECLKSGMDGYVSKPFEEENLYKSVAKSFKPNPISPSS", "assay": "Escherichia coli cytokinin receptor activation assay (CRE1/AHK4)", "format": "cell-based", "conditions": "10^−7 M-5×10^−5 M, compared to trans-zeatin, FIG. 1", "experimental": "(§1) Escherichia coli strains KMI001 harbouring the plasmid pIN-III-AHK4 or pSTV28-AHK3 were grown overnight at 25° C. in M9 media enriched with 0.1% casamino acids to OD600˜1. The preculture was diluted 1:600 in 1 ml M9 medium containing 0.1% casamino acids and 1 μL stock solution of either the tested compound (10^−7 M-5×10^−5 M) or solvent control (DMSO, ethanol, methanol) were added. The cultures were further grown at 25° C. in microtiter plate, 200 μL per well. […] The cultures were centrifuged and 50 μL aliquots of the supernatant were transferred to microtiter plate containing 2 μL 50 mM 4-methyl umbelliferyl galactoside which was subsequently incubated for 1 h at 37° C. The reaction was stopped by adding 100 μL 0.2 M Na2CO3. Fluorescence was measured using a Fluoroscan Ascent (Labsystems, Finland) at the excitation and emission wavelengths of 365 and 460 nm, respectively. The OD600 of remaining culture was determined and β-galactosidase activity was calculated as nmol 4-methylumbelliferone×OD600^−1×h^−1."}, "AHK3": {"target": "T2, AHK3 (Arabidopsis thaliana, UniProt Q9C5U1)", "T2 construct": "expressed in transfected cells; host or cells: Escherichia coli strain KMI001", "T2 sequence (Q9C5U1 1-1036)": "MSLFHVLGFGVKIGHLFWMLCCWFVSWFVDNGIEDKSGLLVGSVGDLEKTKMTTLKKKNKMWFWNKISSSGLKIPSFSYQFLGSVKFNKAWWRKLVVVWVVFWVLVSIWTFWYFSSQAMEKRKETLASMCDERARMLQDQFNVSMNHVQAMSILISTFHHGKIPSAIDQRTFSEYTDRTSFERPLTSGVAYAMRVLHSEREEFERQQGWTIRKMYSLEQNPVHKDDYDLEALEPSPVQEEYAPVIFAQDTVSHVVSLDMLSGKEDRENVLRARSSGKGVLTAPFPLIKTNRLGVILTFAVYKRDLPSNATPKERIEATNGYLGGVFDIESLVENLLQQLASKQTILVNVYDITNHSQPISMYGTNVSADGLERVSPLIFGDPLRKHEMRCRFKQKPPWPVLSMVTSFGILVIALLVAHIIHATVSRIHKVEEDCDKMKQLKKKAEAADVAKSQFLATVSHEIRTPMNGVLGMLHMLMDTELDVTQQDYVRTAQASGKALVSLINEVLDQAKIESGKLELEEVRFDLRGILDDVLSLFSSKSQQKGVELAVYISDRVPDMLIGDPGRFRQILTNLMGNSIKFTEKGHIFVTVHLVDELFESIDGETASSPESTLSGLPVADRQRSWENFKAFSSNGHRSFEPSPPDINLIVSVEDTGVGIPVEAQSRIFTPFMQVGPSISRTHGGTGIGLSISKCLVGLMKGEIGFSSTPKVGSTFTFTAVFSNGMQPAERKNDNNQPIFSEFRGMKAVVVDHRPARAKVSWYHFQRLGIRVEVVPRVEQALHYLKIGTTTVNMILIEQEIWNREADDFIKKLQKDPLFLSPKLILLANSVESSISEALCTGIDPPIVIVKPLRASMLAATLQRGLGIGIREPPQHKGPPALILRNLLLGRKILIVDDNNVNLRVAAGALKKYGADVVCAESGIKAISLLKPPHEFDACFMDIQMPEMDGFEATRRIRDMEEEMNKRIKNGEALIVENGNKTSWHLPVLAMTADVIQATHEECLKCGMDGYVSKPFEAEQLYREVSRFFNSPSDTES", "assay": "Escherichia coli cytokinin receptor activation assay (AHK3)", "format": "cell-based", "conditions": "10^−7 M-5×10^−5 M, compared to trans-zeatin, FIG. 1", "experimental": "as §1"}, "[1]": {"system": "shoot rosettes of Arabidopsis", "assay": "Leaf chlorophyll degradation in dark-incubated shoot rosettes", "format": "in vivo", "conditions": "6 days in the dark", "experimental": "The effect of the compound 12 on retention of chlorophyll in the dark treated plants was tested using app. 18 DAG (days after germination) old Arabidopsis plants grown in vitro on standard MS medium (16 h/8 h light/dark regime, light intensity 120 μmol·m^−l·s^−1). Shoots of the plants were excised from the roots and the whole rossetes were placed into 6-well plate (one rosete per well) into water (3 mL per well) containing 0.01% DMSO (solvent control), or compound 12, cytokinin BAP and CKX inhibitor INCYDE (2-chloro-6-(3-methoxyanilino)purine), in concentrations of 0.01, 0.1, 1 and 10 μM. The plates were then incubated in the dark for 6 days at 25° C. After incubation chlorophyll from each rosette was extracted into 1.8 mL of 80% ethanol, during 30 min of heating to 80° C. The chlorophyll content in extracts was measured spectrofotometricaly at 665 nm. […] In this concentration the rosettes kept around 95% of chlorophyll."}},
  "data": [
    {"smiles": "COc1cccc(Nc2nc(Cl)nc3c2ncn3C2CCCCO2)c1", "note": "(stereo not shown) [compound 12, 2-chloro-6-(3-methoxyanilino)-9-(tetrahydropyran-2-yl)purine]", "values": [
      {"measurement": "ability to activate cytokinin receptor CRE1/AHK4", "setting": "CRE1/AHK4", "value": "very low ability to activate"},
      {"measurement": "ability to activate cytokinin receptor AHK3", "setting": "AHK3", "value": "very low ability to activate"},
      {"measurement": "chlorophyll kept in rosettes", "setting": "[1]; 1 μM", "value": "around 95%"},
      {"measurement": "retention of chlorophyll, activity versus BAP and INCYDE", "setting": "[1]; 0.01-10 μM, FIG. 7", "value": "highest activity in 1 μM concentration"}
    ]}
  ]
}
